Experimental data as given in US10201564B2, “Methods of using inhaled nitric oxide gas for treatment of acute respiratory distress syndrome in children” (Mallinckrodt Hospital Products IP Limited, priority 2014, dated 2019).

Assays:
Format in all cases: in vivo, human
[1] = system: pediatric subjects with acute hypoxemic respiratory failure (AHRF); experiment: Pediatric AHRF study: respiratory values (oxygen status, HFOV, CMV, ABG); details: 5 ppm
Protocol: (§1) Standardized ventilatory management and weaning procedures were used. Ventilatory management was used based on an “open lung approach” using positive end-expiratory pressure (PEEP) to increase lung volume and limiting tidal volumes to reduce plateau pressures. Subjects received nitric oxide for inhalation at 5 ppm or placebo (100% Grade 5 nitrogen gas) into the inspiratory limb of the ventilator circuit using a blinded version of the INOvent® delivery system. The subjects were treated until Day 28 or extubation, whichever occurred first. Subjects were assessed daily using a spontaneous breathing trial, according to the institution's standard of care. Arterial blood gases (ABG), ventilator settings, methemoglobin, oxygenation index, systolic blood pressure, diastolic blood pressure, Pediatric Risk of Mortality (PRISM) III score, and subject positioning (prone or supine) were performed/recorded at specified times during the study. Selected centers also performed plasma cytokine assays, bronchoalveolar lavage fluid (BALF) assays, and a 6-month follow-up assessment.
(§2) The following assessments were made at baseline: arterial blood gases, ventilator settings, methemoglobin, prone position, PRISM III score, oxygenation index, systolic and diastolic blood pressure, bronchoalveolar lavage fluid assay and plasma cytokine.
The following assessments were made at 4 hours±1 hour after the start of therapy: arterial blood gases, ventilator settings and methemoglobin.
The following assessments were made at 12 hours±2 hours after the start of therapy: arterial blood gases and ventilator settings.
(§3) The following assessments were made at 24 hours±2 hours after the start of therapy: arterial blood gases, ventilator settings, methemoglobin, systolic and diastolic blood pressure and plasma cytokine.
Oxygen status was determined at screening only. Respiratory values in the HFOV category were obtained at baseline, 4 hours, 12 hours, and 24 hours. Respiratory values in the categories conventional mechanical ventilation [CMV] and ABG were obtained at baseline, 4 hours, 12 hours, 24 hours, and at extubation.

[2] = system: pediatric subjects with acute hypoxemic respiratory failure (AHRF); experiment: Pediatric AHRF study: vital signs (systolic and diastolic blood pressure); details: 5 ppm
Protocol: as §1, §2, §3
Mean systolic and diastolic blood pressure increased slightly from baseline in both groups at 24 hours. Descriptive statistics for systolic and diastolic blood pressure, which were taken both at baseline and at 24 hours, are summarized Table 26.

[3] = system: patients with moderately severe Acute Lung Injury (ALI); experiment: Adult ALI/ARDS study: safety results (adverse events); details: initial 28-day study period
Protocol: A large-scale, randomized, blinded, placebo-controlled study was carried out in the Intensive Care Units (ICUs) of 46 US hospitals to evaluate the efficacy of low-dose (5 ppm) iNO in 385 patients with moderately severe Acute Lung Injury (ALI). The primary endpoint of this study was number of days alive and off assisted breathing.
Safety results for the initial 28-day study period have been reported and are summarized briefly here. A total of 630 adverse events (AEs) were reported for patients treated with iNO versus 666 events for those who received placebo. Respiratory system AEs occurred in 51% versus 61% of patients receiving iNO and placebo, respectively, primarily due to higher frequencies of pneumonia, pneumothorax, and apnea in the placebo group. Frequency of other AEs was similar in both groups.
Patients were randomly assigned to receive either inhaled placebo gas (nitrogen) or 5 ppm of iNO (INO Therapeutics Inc., Port Allen, La.). All patients, healthcare professionals, and investigators were blinded to the assigned treatment. Inhaled NO was administered via INOvent® delivery system (Datex-Ohmeda, Madison, Wis.) that blended treatment gas (nitrogen or NO at 100-ppm balance nitrogen) 1:20 with ventilator gases to achieve a target ppm value in the inspiratory limb of the ventilator.

[N]=O [Nitric Oxide, nitric oxide] was tested, and the “ABG BE, Mean (SD)” value ([1]; 4 Hours) was 0.7 (4.1) mEq/L, the “ABG BE, Median” value ([1]; 4 Hours) was 1.0 mEq/L and the “ABG HCO3, Mean (SD)” value ([1]; 4 Hours) was 25.7 (3.9) mEq/L. The “ABG HCO3, Median” value ([1]; 4 Hours) was 25.8 mEq/L, the “ABG PaCO2, Mean (SD)” value ([1]; 4 Hours) was 46.0 (18.2) mmHg and the “ABG PaCO2, Median” value ([1]; 4 Hours) was 43.0 mmHg. For the same compound, the “ABG PaO2, Mean (SD)” value ([1]; 4 Hours) was 83.2 (22.6) mmHg, the “ABG PaO2, Median” value ([1]; 4 Hours) was 78.5 mmHg and the “ABG SaO2, Mean (SD)” value ([1]; 4 Hours) was 95.7 (2.9) %. The “ABG SaO2, Median” value ([1]; 4 Hours) was 95.9%, the “ABG pH, Mean (SD)” value ([1]; 4 Hours) was 7.4 (0.1) and the “ABG pH, Median” value ([1]; 4 Hours) was 7.4. The “ABG BE, Mean (SD)” value ([1]; 12 Hours) was 1.1 (4.1) mEq/L, the “ABG BE, Median” value ([1]; 12 Hours) was 2.0 mEq/L and the “ABG HCO2, Mean (SD)” value ([1]; 12 Hours) was 26.7 (4.1) mEq/L. For the same compound, the “ABG HCO2, Median” value ([1]; 12 Hours) was 27.0 mEq/L, the “ABG PaCO2, Mean (SD)” value ([1]; 12 Hours) was 47.4 (8.3) mmHg and the “ABG PaCO2, Median” value ([1]; 12 Hours) was 48.4 mmHg. For the same compound, the “ABG PaO2, Mean (SD)” value ([1]; 12 Hours) was 68.7 (20.9) mmHg, the “ABG PaO2, Median” value ([1]; 12 Hours) was 68.0 mmHg and the “ABG SaO2, Mean (SD)” value ([1]; 12 Hours) was 93.1 (3.2) %. The “ABG SaO2, Median” value ([1]; 12 Hours) was 94.0%, the “ABG pH, Mean (SD)” value ([1]; 12 Hours) was 7.4 (0.1) and the “ABG pH, Median” value ([1]; 12 Hours) was 7.4. The “ABG BE, Mean (SD)” value ([1]; 24 Hours) was 2.3 (3.8) mEq/L, the “ABG BE, Median” value ([1]; 24 Hours) was 2.8 mEq/L and the “ABG HCO3, Mean (SD)” value ([1]; 24 Hours) was 30.6 (14.1) mEq/L. For the same compound, the “ABG HCO3, Median” value ([1]; 24 Hours) was 28.0 mEq/L, the “ABG PaCO2, Mean (SD)” value ([1]; 24 Hours) was 47.2 (11.5) mmHg and the “ABG PaCO2, Median” value ([1]; 24 Hours) was 45.4 mmHg. For the same compound, the “ABG PaO2, Mean (SD)” value ([1]; 24 Hours) was 71.4 (16.8) mmHg, the “ABG PaO2, Median” value ([1]; 24 Hours) was 69.0 mmHg and the “ABG SaO2, Mean (SD)” value ([1]; 24 Hours) was 92.2 (5.4) %. For the same compound, the “ABG SaO2, Median” value ([1]; 24 Hours) was 93.0%, the “ABG pH, Mean (SD)” value ([1]; 24 Hours) was 7.4 (0.1) and the “ABG pH, Median” value ([1]; 24 Hours) was 7.4. The “ABG BE, Mean (SD)” value ([1]; Baseline) was 0.2 (5.3) mEq/L, the “ABG BE, Median” value ([1]; Baseline) was 0.4 mEq/L and the “ABG HCO3, Mean (SD)” value ([1]; Baseline) was 25.6 (5.0) mEq/L. For the same compound, the “ABG HCO3, Median” value ([1]; Baseline) was 26.0 mEq/L, the “ABG PaCO2, Mean (SD)” value ([1]; Baseline) was 45.3 (11.1) mmHg and the “ABG PaCO2, Median” value ([1]; Baseline) was 46.5 mmHg. For the same compound, the “ABG PaO2, Mean (SD)” value ([1]; Baseline) was 67.5 (13.1) mmHg, the “ABG PaO2, Median” value ([1]; Baseline) was 63.0 mmHg and the “ABG SaO2, Mean (SD)” value ([1]; Baseline) was 92.8 (3.5) %. For the same compound, the “ABG SaO2, Median” value ([1]; Baseline) was 92.0%, the “ABG pH, Mean (SD)” value ([1]; Baseline) was 7.4 (0.1) and the “ABG pH, Median” value ([1]; Baseline) was 7.4. For the same compound, the “ABG BE, Mean (SD)” value ([1]; Extubation Criteria) was 5.0 (2.6) mEq/L, the “ABG BE, Median” value ([1]; Extubation Criteria) was 4.0 mEq/L and the “ABG HCO3, Mean (SD)” value ([1]; Extubation Criteria) was 30.2 (2.8) mEq/L. For the same compound, the “ABG HCO3, Median” value ([1]; Extubation Criteria) was 31.0 mEq/L, the “ABG PaCO2, Mean (SD)” value ([1]; Extubation Criteria) was 47.5 (8.4) mmHg and the “ABG PaCO2, Median” value ([1]; Extubation Criteria) was 44.0 mmHg. The “ABG PaO2, Mean (SD)” value ([1]; Extubation Criteria) was 91.8 (42.3) mmHg, the “ABG PaO2, Median” value ([1]; Extubation Criteria) was 78.0 mmHg and the “ABG SaO2, Mean (SD)” value ([1]; Extubation Criteria) was 94.6 (5.9) %. For the same compound, the “ABG SaO2, Median” value ([1]; Extubation Criteria) was 96.0%, the “ABG pH, Mean (SD)” value ([1]; Extubation Criteria) was 7.4 (0.1) and the “ABG pH, Median” value ([1]; Extubation Criteria) was 7.4. For the same compound, the “Oxygen Status Oxygen Index 1, Mean (SD)” value ([1]; Screening) was 22.2 (8.2), the “Oxygen Status Oxygen Index 1, Median” value ([1]; Screening) was 21.3 and the “Oxygen Status Oxygen Index 2, Mean (SD)” value ([1]; Screening) was 22.7 (7.9). For the same compound, the “Oxygen Status Oxygen Index 2, Median” value ([1]; Screening) was 23.0, the “Diastolic BP, Mean (SD)” value ([2]; 24 Hours) was 56.0 (12.7) mmHg and the “Diastolic BP, Median” value ([2]; 24 Hours) was 54.5 mmHg. The “Systolic BP, Mean (SD)” value ([2]; 24 Hours) was 97.9 (21.7) mmHg, the “Systolic BP, Median” value ([2]; 24 Hours) was 103.0 mmHg and the “Diastolic BP, Mean (SD)” value ([2]; Baseline) was 54.6 (11.6) mmHg. For the same compound, the “Diastolic BP, Median” value ([2]; Baseline) was 55.5 mmHg, the “Systolic BP, Mean (SD)” value ([2]; Baseline) was 94.4 (17.4) mmHg and the “Systolic BP, Median” value ([2]; Baseline) was 95.5 mmHg. For the same compound, the “Frequency of other (non-respiratory) AEs versus placebo” value [3] was “similar”, the “Respiratory system AEs, patients” value ([3]; placebo 61%) was 51% and the “adverse events (AEs) reported, total” value ([3]; placebo 666) was 630.
